Results: the NIST ThermoML archive (doi:10.1016/j.jct.2007.07.005)

Details: Fluid (supercritical or subcritical phases), vibrating tube

CCCCCO [pentan-1-ol]
Details	mass density [kg/m3]
342.76 K, 505 kPa	776.31
342.76 K, 997 kPa	776.77
342.76 K, 1995 kPa	777.69
342.76 K, 3011 kPa	778.59
342.76 K, 4012 kPa	779.47
342.76 K, 5011 kPa	780.34
342.76 K, 6011 kPa	781.22
342.76 K, 7003 kPa	782.03
342.76 K, 8015 kPa	782.91
342.76 K, 9000 kPa	783.73
342.76 K, 10019 kPa	784.58
342.76 K, 11020 kPa	785.4
342.76 K, 12002 kPa	786.2
342.76 K, 13016 kPa	787.02
342.76 K, 14024 kPa	787.81
342.76 K, 15002 kPa	788.59
342.76 K, 16007 kPa	789.36
342.76 K, 17037 kPa	790.15
342.76 K, 17988 kPa	790.87
342.76 K, 19037 kPa	791.66
342.76 K, 20003 kPa	792.38
342.76 K, 21015 kPa	793.14
342.76 K, 22019 kPa	793.88
342.76 K, 23039 kPa	794.62
342.76 K, 24027 kPa	795.36
342.76 K, 25028 kPa	796.1
352.71 K, 508 kPa	768.15
352.71 K, 1011 kPa	768.66
352.71 K, 1995 kPa	769.61
352.71 K, 3014 kPa	770.57
352.71 K, 3998 kPa	771.49
352.71 K, 5022 kPa	772.45
352.71 K, 6012 kPa	773.35
352.71 K, 7006 kPa	774.26
352.71 K, 8024 kPa	775.17
352.71 K, 9005 kPa	776.05
352.71 K, 10016 kPa	776.94
352.71 K, 11026 kPa	777.81
352.71 K, 12001 kPa	778.65
352.71 K, 13002 kPa	779.5
352.71 K, 14026 kPa	780.35
352.71 K, 15000 kPa	781.18
352.71 K, 16005 kPa	781.98
352.71 K, 17023 kPa	782.81
352.71 K, 18003 kPa	783.59
352.71 K, 19049 kPa	784.43
352.71 K, 20035 kPa	785.2
352.71 K, 21002 kPa	785.96
352.71 K, 21995 kPa	786.73
352.71 K, 23020 kPa	787.52
352.71 K, 24045 kPa	788.32
352.71 K, 25009 kPa	789.05
362.59 K, 517 kPa	759.7
362.59 K, 1023 kPa	760.25
362.59 K, 2005 kPa	761.26
362.59 K, 3010 kPa	762.29
362.59 K, 3998 kPa	763.28
362.59 K, 5006 kPa	764.25
362.59 K, 6013 kPa	765.23
362.59 K, 7014 kPa	766.21
362.59 K, 8007 kPa	767.16
362.59 K, 9020 kPa	768.1
362.59 K, 10006 kPa	769.02
362.59 K, 10991 kPa	769.93
362.59 K, 12025 kPa	770.87
362.59 K, 13008 kPa	771.76
362.59 K, 13998 kPa	772.62
362.59 K, 15017 kPa	773.51
362.59 K, 16000 kPa	774.37
362.59 K, 17013 kPa	775.24
362.59 K, 18032 kPa	776.11
362.59 K, 19003 kPa	776.9
362.59 K, 20030 kPa	777.77
362.59 K, 20987 kPa	778.55
362.59 K, 22033 kPa	779.4
362.59 K, 23000 kPa	780.2
362.59 K, 24031 kPa	781.02
362.59 K, 25026 kPa	781.82
